Assay results published in patent US7999011B2, “Method for cardioprotection and neuroprotection by intravenous administration of halogenated volatile anesthetics” (Baxter International Inc., priority 2002, dated 2011).

Experiments:
[1] = Arterial blood gas analysis; assay type: in vivo, rabbit; settings: for pH: arterial blood
Protocol: (§1) Male New Zealand white rabbits weighing between 2.5 and 3.0 kg were anesthetized with intravenous sodium pentobarbital (30 mg/kg). Additional doses of pentobarbital were titrated as required to assure that pedal and palpebral reflexes were absent throughout the experiment. A tracheotomy was performed through a ventral midline incision, and the trachea was cannulated. The rabbits were ventilated with positive pressure using an air-oxygen mixture (FiO2=0.33). […] Body temperature was maintained with a heating blanket. Heparin-filled catheters were inserted into the right carotid artery and the left jugular vein for measurement of arterial blood pressure and fluid or drug administration, respectively. Maintenance fluids consisted of 0.9% saline (15 ml/kg/h) that were continued for the duration of the experiment.
(§2) Baseline measurements of systemic hemodynamics, arterial blood gas tensions, and blood concentrations of anesthetic agent were performed 30 min after instrumentation was completed. Rabbits received 0.9% saline, drug lipid vehicle (10 ml/h), or intravenous volatile anesthetic (10 ml/h) for 30 min. Infusions were discontinued 30 min prior to coronary occlusion (memory period). Blood concentrations of anesthetic agents were performed at baseline, at the end of anesthetic infusion, and at the end of the memory period just before coronary occlusion). HVA concentrations in blood were determined by gas chromatographic (GC) analysis. All rabbits underwent a 30 min LAD occlusion followed by 3 h reperfusion.
(§3) Statistical analysis of data within and between groups was performed with analysis of variance (ANOVA) for repeated measures followed by Student-Newman-Keuls test. Changes between groups were considered statistically significant when the p value was less than 0.05. All data are expressed as mean±SEM.

[2] = Literature MAC values in rabbits and 1 MAC-equivalent blood concentration; assay type: in vivo; settings: 37° C., rabbit; x=λn
Protocol: “Minimum alveolar concentration (MAC)”, as is known in the art, is the alveolar concentration of an anesthetic, administered by inhalation at a pressure of 1 atmosphere, that prevents movement in 50% of patients in response to a painful stimuli. The MAC is age-dependent; it may be affected by a patient's medical condition; and it may also be affected by other pharmaceutical agents that are administered to the patient. In the context of intravenous administration of HVAs, the term “MAC” or “MAC-equivalent” is intended to mean an intravenous dose which produces the same blood plasma concentration of an anesthetic agent as that attained by inhalational administration of a gaseous concentration of anesthetic which prevents such movement in 50% of patients.
Blood concentrations as measured by GC were converted to their MAC-equivalent values by calculations described below. Initially “n”, or the number of moles of HVA in 1 L of alveolar gas during exposure to 1.0 MAC of the HVA was calculated.
The number of moles of the HVA in 1 L at 37° C. at 1 MAC in rabbits was then used to determine the concentration of the HVA present in blood by using known blood/gas partition values (also known as λ). […] The value for “x” (or the equivalent blood concentration of the HVA at 1 MAC at 37° C. in rabbit) is then determined by the equation: x=λn

[3] = Systemic hemodynamics during infarct experiment; assay type: in vivo, rabbit
Protocol: as §1
A left thoracotomy was performed at the fourth intercostal space, and the heart was suspended in a pericardial cradle. A prominent branch of the left anterior descending coronary artery (LAD) was selected, and a silk ligature was placed around this artery approximately halfway between the base and apex for the production of coronary artery occlusion and reperfusion in myocardial infarct size experiments. Each rabbit was anticoagulated with 500 U of heparin immediately before LAD occlusion. Coronary artery occlusion was verified by the presence of epicardial cyanosis and regional dyskinesia in the ischemic zone, and reperfusion was confirmed by observing an epicardial hyperemic response. Hemodynamics were continuously recorded on a polygraph throughout experimentation. After the surgical preparation, 30 min of stabilization were allowed.
as §2, §3

[4] = literature values determined in rabbits; cited from earlier work
[5] = Warming of emulsion at 37° C. for 2 h before infusion; assay type: physicochemical; settings: syringe and extension tubing
Protocol: The experimental design for the experiments is illustrated in FIG. 1. Rabbits were randomly assigned to one of six experimental groups: a control group (0.9% saline infusion), a vehicle group (drug lipid vehicle), or one of four anesthetic groups (emulsified desflurane, isoflurane, enflurane, or sevoflurane). The vials of anesthetics were stored at 4° C. as prepared in Example 1. After opening, the vial was left in a water bath at 37° C. for 2 h. Anesthetics were directly poured into the syringe without using negative pressure suction.
All anesthetics were used under equivalent experimental conditions, as indicated previously (i.e., warmed for two hours at body temperature before infusion).
Despite efforts to remove the bubbles, it was impossible to eliminate all bubbles, and some were likely infused during the infusion period. Desflurane results should therefore be interpreted with the constraints of this experimental limitation.

[6] = i.v. emulsion 10 ml/h for 30 min, Baseline

FC(F)OC(F)C(F)(F)F (centres unmarked) [DES, desflurane]
PaCO2 ([1]; Baseline): 29 ± 2 mmHg | PaO2 ([1]; Baseline): 158 ± 23 mmHg | PaCO2 ([1]; Infusion): 32 ± 3 mmHg | PaO2 ([1]; Infusion): 157 ± 17 mmHg | PaCO2 ([1]; Ischemia 30 min): 31 ± 3 mmHg | PaO2 ([1]; Ischemia 30 min): 136 ± 24 mmHg | PaCO2 ([1]; Memory): 34 ± 3 mmHg | PaO2 ([1]; Memory): 143 ± 17 mmHg | PaCO2 ([1]; Reperfusion 1 h): 30 ± 4 mmHg | PaO2 ([1]; Reperfusion 1 h): 141 ± 19 mmHg | PaCO2 ([1]; Reperfusion 2 h): 26 ± 3 mmHg | PaO2 ([1]; Reperfusion 2 h): 155 ± 18 mmHg | PaCO2 ([1]; Reperfusion 3 h): 30 ± 1 mmHg | PaO2 ([1]; Reperfusion 3 h): 165 ± 12 mmHg | pH ([1]; Baseline): 7.45 ± 0.02 | pH ([1]; Infusion): 7.40 ± 0.02 | pH ([1]; Ischemia 30 min): 7.34 ± 0.01 | pH ([1]; Memory): 7.36 ± 0.02 | pH ([1]; Reperfusion 1 h): 7.37 ± 0.02 | pH ([1]; Reperfusion 2 h): 7.40 ± 0.01 | pH ([1]; Reperfusion 3 h): 7.41 ± 0.01 | 1 MAC-Equivalent Blood Concentration at 1 MAC ("x") [2]: 1.38 mM | MAP ([3]; Baseline): 71 ± 8 mmHg | HR ([3]; Infusion): 253 ± 9 bpm | MAP ([3]; Infusion): 67 ± 9 mmHg | RPP ([3]; Infusion): 20.4 ± 2.8 bpm × mmHg × 10^3 | HR ([3]; Ischemia 30 min): 228 ± 7 bpm | MAP ([3]; Ischemia 30 min): 53 ± 8 mmHg | RPP ([3]; Ischemia 30 min): 14.5 ± 2 bpm × mmHg × 10^3 | HR ([3]; Memory): 231 ± 9 bpm | MAP ([3]; Memory): 58 ± 10 mmHg | RPP ([3]; Memory): 16.3 ± 3 bpm × mmHg × 10^3 | MAP ([3]; Memory, listed as desflurane): decrease in mean arterial pressure | HR ([3]; Reperfusion 1 h): 201 ± 14 bpm | MAP ([3]; Reperfusion 1 h): 54 ± 7 mmHg | RPP ([3]; Reperfusion 1 h): 12.4 ± 0.4 bpm × mmHg × 10^3 | RPP ([3]; Reperfusion 1 h, listed as desflurane): decreased | HR ([3]; Reperfusion 2 h): 216 ± 6 bpm | MAP ([3]; Reperfusion 2 h): 58 ± 8 mmHg | RPP ([3]; Reperfusion 2 h): 15 ± 2.1 bpm × mmHg × 10^3 | HR ([3]; Reperfusion 3 h): 219 ± 7 bpm | MAP ([3]; Reperfusion 3 h): 54 ± 5 mmHg | RPP ([3]; Reperfusion 3 h): 14.2 ± 1.4 bpm × mmHg × 10^3 | HR [3, 6]: 261 ± 11 bpm | Average MAC [4]: 8.9 % v/v | behaviour of emulsion on warming to body temperature [5]: bubbles accumulated in the syringe and extension tubing

FC(F)OC(Cl)C(F)(F)F (centres unmarked) [ISO, isoflurane]
PaCO2 ([1]; Baseline): 34 ± 2 mmHg | PaO2 ([1]; Baseline): 136 ± 17 mmHg | PaCO2 ([1]; Infusion): 34 ± 2 mmHg | PaO2 ([1]; Infusion): 124 ± 11 mmHg | PaCO2 ([1]; Ischemia 30 min): 33 ± 2 mmHg | PaO2 ([1]; Ischemia 30 min): 166 ± 24 mmHg | PaCO2 ([1]; Memory): 36 ± 2 mmHg | PaO2 ([1]; Memory): 146 ± 15 mmHg | PaCO2 ([1]; Reperfusion 1 h): 31 ± 2 mmHg | PaO2 ([1]; Reperfusion 1 h): 167 ± 12 mmHg | PaCO2 ([1]; Reperfusion 2 h): 32 ± 2 mmHg | PaO2 ([1]; Reperfusion 2 h): 169 ± 12 mmHg | PaCO2 ([1]; Reperfusion 3 h): 33 ± 2 mmHg | PaO2 ([1]; Reperfusion 3 h): 160 ± 13 mmHg | pH ([1]; Baseline): 7.43 ± 0.02 | pH ([1]; Infusion): 7.40 ± 0.03 | pH ([1]; Ischemia 30 min): 7.36 ± 0.02 | pH ([1]; Memory): 7.36 ± 0.02 | pH ([1]; Reperfusion 1 h): 7.39 ± 0.02 | pH ([1]; Reperfusion 2 h): 7.39 ± 0.02 | pH ([1]; Reperfusion 3 h): 7.39 ± 0.01 | 1 MAC-Equivalent Blood Concentration at 1 MAC ("x") [2]: 1.06 mM | MAP ([3]; Baseline): 64 ± 5 mmHg | RPP ([3]; Baseline): 17.7 ± 2 bpm × mmHg × 10^3 | HR ([3]; Infusion): 227 ± 14 bpm | MAP ([3]; Infusion): 57 ± 6 mmHg | RPP ([3]; Infusion): 16.2 ± 2.2 bpm × mmHg × 10^3 | MAP ([3]; Infusion, listed as isoflurane): decreased | HR ([3]; Ischemia 30 min): 220 ± 11 bpm | MAP ([3]; Ischemia 30 min): 54 ± 5 mmHg | RPP ([3]; Ischemia 30 min): 14.3 ± 1.6 bpm × mmHg × 10^3 | HR ([3]; Memory): 229 ± 10 bpm | MAP ([3]; Memory): 62 ± 6 mmHg | RPP ([3]; Memory): 16.7 ± 2 bpm × mmHg × 10^3 | HR ([3]; Reperfusion 1 h): 212 ± 4 bpm | MAP ([3]; Reperfusion 1 h): 52 ± 3 mmHg | RPP ([3]; Reperfusion 1 h): 13.3 ± 0.8 bpm × mmHg × 10^3 | RPP ([3]; Reperfusion 1 h, listed as isoflurane): decreased | HR ([3]; Reperfusion 2 h): 201 ± 6 bpm | MAP ([3]; Reperfusion 2 h): 54 ± 3 mmHg | RPP ([3]; Reperfusion 2 h): 13.2 ± 1 bpm × mmHg × 10^3 | HR ([3]; Reperfusion 3 h): 195 ± 7 bpm | MAP ([3]; Reperfusion 3 h): 58 ± 3 mmHg | RPP ([3]; Reperfusion 3 h): 13.5 ± 1 bpm × mmHg × 10^3 | HR [3, 6]: 240 ± 9 bpm | Average MAC [4]: 2.05 % v/v
